# Assay: Western blot analysis for "B" compounds
# Format: cell-based
# Settings: read-out: Traditional Western Degradation Potency (DC50)
# Summary of the method: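 Compound-treated cells lysed in RIPA buffer with protease inhibitors; equal protein (BCA) run on 10% SDS-PAGE, transferred to PVDF and probed with target antibodies. Band intensities quantified by densitometry and normalized to GAPDH.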
row,DC50 [nM],SMILES
1,> 100,"O=C1CCC(N2C(=O)c3cc4c(cc3C2=O)CN(C(=O)[C@H]2CC[C@@H](N3CC(Nc5ccc([C@@H]6c7ccc(O)cc7CC[C@@H]6c6ccccc6)cc5)C3)CC2)C4)C(=O)N1 (stereo partly drawn) [Compound B129, 2-(2,6-dioxopiperidin-3-yl)-6-((1R,4s)-4-(3-((4-((1R,2S)-6-hydroxy-2-phenyl-1,2,3,4-tetrahydronaphthalen-1-yl)phenyl)amino)azetidin-1-yl)cyclohexane-1-carbonyl)-6,7-dihydropyrrolo[3,4-f]isoindole-1,3(2H,5H)-dione]"
2,> 100,"CN(c1ccc([C@@H]2c3ccc(O)cc3CC[C@@H]2c2ccccc2)cc1)C1CN([C@H]2CC[C@H](C(=O)N3Cc4cc5c(cc4C3)C(=O)N(C3CCC(=O)NC3=O)C5=O)CC2)C1 (stereo partly drawn) [Compound B130, 2-(2,6-dioxopiperidin-3-yl)-6-((1R,4r)-4-(3-((4-((1R,2S)-6-hydroxy-2-phenyl-1,2,3,4-tetrahydronaphthalen-1-yl)phenyl)(methyl)amino)azetidin-1-yl)cyclohexane-1-carbonyl)-6,7-dihydropyrrolo[3,4-f]isoindole-1,3(2H,5H)-dione]"
3,> 100,"CN(c1ccc([C@@H]2c3ccc(O)cc3CC[C@@H]2c2ccccc2)cc1)C1CN([C@H]2CC[C@@H](C(=O)N3Cc4cc5c(cc4C3)C(=O)N(C3CCC(=O)NC3=O)C5=O)CC2)C1 (stereo partly drawn) [Compound B131, 2-(2,6-dioxopiperidin-3-yl)-6-((1S,4s)-4-(3-((4-((1R,2S)-6-hydroxy-2-phenyl-1,2,3,4-tetrahydronaphthalen-1-yl)phenyl)(methyl)amino)azetidin-1-yl)cyclohexane-1-carbonyl)-6,7-dihydropyrrolo[3,4-f]isoindole-1,3(2H,5H)-dione]"
4,> 100,"CN(c1ccc([C@@H]2c3ccc(O)cc3CC[C@@H]2c2ccccc2)cc1)C1CN(C[C@H]2CC[C@H](C(=O)N3Cc4cc5c(cc4C3)C(=O)N(C3CCC(=O)NC3=O)C5=O)CC2)C1 (stereo partly drawn) [Compound B132, 2-(2,6-dioxopiperidin-3-yl)-6-((1R,4r)-4-((3-((4-((1R,2S)-6-hydroxy-2-phenyl-1,2,3,4-tetrahydronaphthalen-1-yl)phcnyl)(mcthyl)amino)azctidin-1-yl)mcthyl)cyclohexanc-1-carbonyl)-6,7-dihydropyrrolo[3,4-f]isoindole-1,3(2H,5H)-dione]"
5,> 100,"O=C1CCC(N2Cc3cc4c(cc3C2=O)NC(=O)[C@@H]2CN(CC3CCN(c5ccc([C@@H]6c7ccc(O)cc7CC[C@@H]6c6ccccc6)cc5)CC3)CCN42)C(=O)N1 (stereo partly drawn) [Compound B134, (4aS)-9-(2,6-dioxopiperidin-3-yl)-3-((1-(4-((1R,2S)-6-hydroxy-2-phenyl-1,2,3,4-tetrahydronaphthalen-1-yl)phenyl)piperidin-4-yl)methyl)-2,3,4,4a,9,10-hexahydropyrazino[1,2-a]pyrrolo[3,4-g]quinoxaline-5,8(1H,6H)-dione]"
6,10 to 100,"CN1C[C@@H]2CN(CC3CCN(c4ccc([C@@H]5c6ccc(O)cc6CC[C@@H]5c5ccccc5)cc4)CC3)CCN2c2cc3c(cc21)C(=O)N(C1CCC(=O)NC1=O)C3 (stereo partly drawn) [Compound B137, 3-((S)-3-((1-(4-((1R,2S)-6-hydroxy-2-phenyl-1,2,3,4-tetrahydronaphthalen-1-yl)phenyl)piperidin-4-yl)methyl)-6-methyl-8-oxo-2,3,4,4a,5,6,8,10-octahydropyrazino[1,2-a]pyrrolo[3,4-g]quinoxalin-9(1H)-yl)piperidine-2,6-dione]"
7,10 to 100,"O=C1CCC(N2C(=O)c3cc4c(cc3C2=O)CN(CC(=O)N2CCC3(CC2)CCN(c2ccc([C@@H]5c6ccc7[nH]ncc7c6CC[C@@H]5c5ccccc5)cc2)CC3)C4)C(=O)N1 (stereo partly drawn) [Compound B139, 2-(2,6-dioxopiperidin-3-yl)-6-(2-oxo-2-(9-(4-((6R,7S)-7-phenyl-6,7,8,9-tetrahydro-3H-benzo[e]indazol-6-yl)phenyl)-3,9-diazaspiro[5.5]undecan-3-yl)ethyl)-6,7-dihydropyrrolo[3,4-f]isoindole-1,3(2H,5H)-dione]"
8,> 100,"O=C1CCC(N2C(=O)c3cc4c(cc3C2=O)CN(CC(=O)N2CC3(CCN(c5ccc([C@H]6c7ccc(O)cc7CC[C@H]6c6ccccc6)cc5)CC3)C2)C4)C(=O)N1 (stereo partly drawn) [Compound B179, 2-(2,6-dioxopiperidin-3-yl)-6-(2-(7-(4-((1S,2R)-6-hydroxy-2-phenyl-1,2,3,4-tetrahydronaphthalen-1-yl)phenyl)-2,7-diazaspiro[3.5]nonan-2-yl)-2-oxoethyl)-6,7-dihydropyrrolo[3,4-f]isoindole-1,3(2H,5H)-dione]"
9,> 100,"O=C1CCC(N2C(=O)c3cc4c(cc3C2=O)CN(CC(=O)N2CCC3(CC2)CCN(c2ccc([C@H]5c6ccc(O)cc6CC[C@H]5c5ccccc5)cc2)CC3)C4)C(=O)N1 (stereo partly drawn) [Compound B180, 2-(2,6-dioxopiperidin-3-yl)-6-(2-(9-(4-((1S,2R)-6-hydroxy-2-phenyl-1,2,3,4-tetrahydronaphthalen-1-yl)phenyl)-3,9-diazaspiro[5.5]undecan-3-yl)-2-oxoethyl)-6,7-dihydropyrrolo[3,4-f]isoindole-1,3(2H,5H)-dione]"
10,> 100,"O=C1CCC(N2C(=O)c3cc4c(cc3C2=O)CN(C2CCC(CNC3CN(c5ccc([C@@H]6c7ccc(O)cc7CC[C@@H]6c6ccccc6)cc5)C3)CC2)C4)C(=O)N1 (stereo partly drawn) [Compound B181, 2-(2,6-dioxopiperidin-3-yl)-6-(4-(((1-(4-((1R,2S)-6-hydroxy-2-phenyl-1,2,3,4-tetrahydronaphthalen-1-yl)phenyl)azetidin-3-yl)amino)methyl)cyclohexyl)-6,7-dihydropyrrolo[3,4-f]isoindole-1,3(2H,5H)-dione]"
11,> 100,"O=C1CCC(N2C(=O)c3cc4c(cc3C2=O)CN(C2CCC3(CC2)CCN(c2ccc([C@@H]5c6ccc(O)cc6CC[C@@H]5c5ccccc5)cc2)CC3)C4)C(=O)N1 (stereo partly drawn) [Compound B189, 2-(2,6-dioxopiperidin-3-yl)-6-(3-(4-((1R,2S)-6-hydroxy-2-phenyl-1,2,3,4-tetrahydronaphthalen-1-yl)phenyl)-3-azaspiro[5.5]undecan-9-yl)-6,7-dihydropyrrolo[3,4-f]isoindole-1,3(2H,5H)-dione]"
12,10 to 100,"O=C1CCC(N2C(=O)c3cc4c(cc3C2=O)CN(CC(=O)N2CCC3(CC2)CCN(c2ccc([C@@H]5c6ccc(O)cc6CC[C@@H]5c5ccccc5)cc2)CC3)CC4)C(=O)N1 (stereo partly drawn) [Compound B194, 2-(2,6-dioxopiperidin-3-yl)-6-(2-(9-(4-((1R,2S)-6-hydroxy-2-phenyl-1,2,3,4-tetrahydronaphthalen-1-yl)phenyl)-3,9-diazaspiro[5.5]undecan-3-yl)-2-oxoethyl)-5,6,7,8-tetrahydro-1H-pyrrolo[3,4-g]isoquinoline-1,3(2H)-dione]"
13,10 to 100,"O=C1CCC(N2C(=O)c3cc4c(cc3C2=O)CN(CC(=O)N2CCC3(CC2)CCN(c2ccc([C@@H]5c6ccc(O)cc6CC[C@@H]5c5ccccc5)cc2)CC3)CC4)C(=O)N1 (stereo partly drawn) [Compound B195, 2-(2,6-dioxopiperidin-3-yl)-6-(2-(9-(4-((1R,2S)-6-hydroxy-2-phenyl-1,2,3,4-tetrahydronaphthalen-1-yl)phenyl)-3,9-diazaspiro[5.5]undecan-3-yl)-2-oxoethyl)-5,6,7,8-tetrahydro-1H-pyrrolo[3,4-g]isoquinoline-1,3(2H)-dione]"
14,> 100,"O=C1CCC(N2Cc3cc4c(cc3C2=O)CN(C(=O)C2CCN(CC3CCN(c5ccc([C@@H]6c7ccc(O)cc7CC[C@@H]6c6ccccc6)cc5)CC3)CC2)C4)C(=O)N1 (stereo partly drawn) [Compound B199, 3-(6-(1-((1-(4-((1R,2S)-6-hydroxy-2-phenyl-1,2,3,4-tetrahydronaphthalen-1-yl)phenyl)piperidin-4-yl)methyl)piperidine-4-carbonyl)-1-oxo-3,5,6,7-tetrahydropyrrolo[3,4-f]isoindol-2(1H)-yl)piperidine-2,6-dione]"
15,10 to 100,"CN(C1CCC(C(=O)N2Cc3cc4c(cc3C2)C(=O)N(C2CCC(=O)NC2=O)C4=O)CC1)C1CCN(c2ccc([C@@H]3c4ccc(O)cc4CC[C@@H]3c3ccccc3)cc2)CC1 (stereo partly drawn) [Compound B200, 2-(2,6-dioxopiperidin-3-yl)-6-(4-((1-(4-((1R,2S)-6-hydroxy-2-phenyl-1,2,3,4-tetrahydronaphthalen-1-yl)phenyl)piperidin-4-yl)(methyl)amino)cyclohexane-1-carbonyl)-6,7-dihydropyrrolo[3,4-f]isoindole-1,3(2H,5H)-dione]"
16,10 to 100,"CN(C1CCC(C(=O)N2Cc3cc4c(cc3C2)C(=O)N(C2CCC(=O)NC2=O)C4)CC1)C1CCN(c2ccc([C@@H]3c4ccc(O)cc4CC[C@@H]3c3ccccc3)cc2)CC1 (stereo partly drawn) [Compound B201, 3-(6-(4-((1-(4-((1R,2S)-6-hydroxy-2-phenyl-1,2,3,4-tetrahydronaphthalen-1-yl)phenyl)piperidin-4-yl)(methyl)amino)cyclohexane-1-carbonyl)-1-oxo-3,5,6,7-tetrahydropyrrolo[3,4-f]isoindol-2(1H)-yl)piperidine-2,6-dione]"
17,> 100,"CN(C1CCC(CN2Cc3cc4c(cc3C2)C(=O)N(C2CCC(=O)NC2=O)C4)CC1)C1CCN(c2ccc([C@@H]3c4ccc(O)cc4CC[C@@H]3c3ccccc3)cc2)CC1 (stereo partly drawn) [Compound B202, 3-(6-((4-((1-(4-((1R,2S)-6-hydroxy-2-phenyl-1,2,3,4-tetrahydronaphthalen-1-yl)phenyl)piperidin-4-yl)(methyl)amino)cyclohexyl)methyl)-1-oxo-3,5,6,7-tetrahydropyrrolo[3,4-f]isoindol-2(1H)-yl)piperidine-2,6-dione]"
18,> 100,"O=C1CCC(N2C(=O)c3cc4c(cc3C2=O)CN(CC2(F)CCN(C(=O)C3CN(c5ccc([C@@H]6c7ccc(O)cc7CC[C@@H]6c6ccccc6)cc5)C3)CC2)C4)C(=O)N1 (stereo partly drawn) [Compound B262, 2-(2,6-dioxopiperidin-3-yl)-6-((4-fluoro-1-(1-(4-((1R,2S)-6-hydroxy-2-phenyl-1,2,3,4-tetrahydronaphthalen-1-yl)phenyl)azetidine-3-carbonyl)piperidin-4-yl)methyl)-6,7-dihydropyrrolo[3,4-f]isoindole-1,3(2H,5H)-dione]"

# — US20260028354A1, “TETRAHYDRONAPHTHALENE DERIVATIVES AS ESTROGEN RECEPTOR DEGRADERS” (REGENT OF THE UNIVERSITY OF MICHIGAN, priority 2022, published 2026)
